Measured values published in ChEMBL document CHEMBL5143608, “Peptide-based long-acting co-agonists of GLP-1 and cholecystokinin 1 receptors as novel anti-diabesity agents” (Eur J Med Chem, 2022).
Activity calls are given as the source filed them. No cut-off for these calls is given here. *1 amine or outer side, *2 acyl side, *3 side chain or, on linkers, in order; H or OH if unused. Where a SMILES comes first, the peptide text is derived from it. [ ]: non-standard residue; d: D form. The star is where a group is joined. Phe(4-CH2SO3H) = N[C@@H](Cc1ccc(CS(=O)(=O)O)cc1)C(=O)O; C18 diacid = O=C(O)CCCCCCCCCCCCCCCCC(=O)*; γGlu = O=C(O)[C@H](CCC(=O)[*:2])N[*:1]; NMeF = CN[C@@H](Cc1ccccc1)C(=O)O; dNMeD = CN[C@H](CC(=O)O)C(=O)O; Nle = CCCC[C@H](N)C(=O)O; AEEA = NCCOCCOCC(=O)O

Legend:
[1] = target: T1, Cholecystokinin receptor type A (Homo sapiens, UniProt P32238); test: Agonist activity at human CCK1R expressed in HEK293 cells assessed as ERK1/2 phosphorylation incubated for 5 mins by AlphaScreen assay; type: functional, cell-based
T1 sequence (P32238 whole entry): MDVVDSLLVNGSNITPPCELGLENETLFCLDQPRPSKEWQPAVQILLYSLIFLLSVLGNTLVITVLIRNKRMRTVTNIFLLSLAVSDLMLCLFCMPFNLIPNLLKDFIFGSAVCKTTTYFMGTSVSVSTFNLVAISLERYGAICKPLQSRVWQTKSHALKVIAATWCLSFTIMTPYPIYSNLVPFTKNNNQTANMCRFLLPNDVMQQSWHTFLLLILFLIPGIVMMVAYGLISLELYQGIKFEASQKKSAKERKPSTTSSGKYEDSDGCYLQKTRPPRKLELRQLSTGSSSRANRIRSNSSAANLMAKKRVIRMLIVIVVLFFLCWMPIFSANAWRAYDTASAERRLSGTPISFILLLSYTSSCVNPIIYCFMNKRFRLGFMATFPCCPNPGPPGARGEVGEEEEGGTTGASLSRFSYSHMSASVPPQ

[2] = target: T2, Gastrin/cholecystokinin type B receptor (Homo sapiens, UniProt P32239); test: Agonist activity at human CCK2R expressed in HEK293 cells assessed as ERK1/2 phosphorylation incubated for 5 mins by AlphaScreen assay; type: functional, cell-based
T2 sequence (P32239 whole entry): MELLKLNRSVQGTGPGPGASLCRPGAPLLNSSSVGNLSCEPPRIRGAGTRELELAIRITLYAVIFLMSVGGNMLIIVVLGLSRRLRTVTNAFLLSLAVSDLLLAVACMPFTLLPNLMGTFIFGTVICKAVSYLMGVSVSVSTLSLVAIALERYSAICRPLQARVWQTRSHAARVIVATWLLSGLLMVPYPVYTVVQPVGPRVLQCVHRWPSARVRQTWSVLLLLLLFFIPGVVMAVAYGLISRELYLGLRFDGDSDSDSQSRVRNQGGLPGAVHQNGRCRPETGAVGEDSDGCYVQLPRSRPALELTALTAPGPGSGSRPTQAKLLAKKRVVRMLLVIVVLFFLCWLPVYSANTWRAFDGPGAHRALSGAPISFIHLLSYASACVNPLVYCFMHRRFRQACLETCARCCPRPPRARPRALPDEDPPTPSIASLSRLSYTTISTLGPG

Mus musculus [3] = test: Anti-diabesity activity against high fat diet-induced DIO C57BL/6 mouse model assessed as decrease in body weight at 25 nmol/kg, sc administered for 2 weeks; type: functional; conditions: C57BL/6, 336 h, time 14 day
Mus musculus [4] = test: Anti-diabesity activity against high fat diet-induced DIO C57BL/6 mouse model assessed as reduction in food intake at 25 nmol/kg, sc administered for 2 weeks; type: functional, organism-based; conditions: time 14.0 day
Mus musculus [5] = test: Anti-diabesity activity against high fat diet-induced DIO C57BL/6 mouse model assessed as reduction in fat mass accumulation at 25 nmol/kg, sc administered for 2 weeks and measured on day 15 by NMR analysis; type: functional, organism-based; conditions: time 15.0 day
Mus musculus [6] = test: Anti-diabesity activity against high fat diet-induced DIO C57BL/6 mouse model assessed as reduction in fasted blood glucose level at 25 nmol/kg, sc administered for 2 weeks and measured on day 15 by glucometer analysis; type: functional, organism-based; conditions: time 15.0 day
Mus musculus [7] = test: Hypoglycemic activity in db/db mouse assessed as improvement in glucose tolerance at 25 nmol/kg, ip administered 30 min before oral glucose administration and measured upto 120 mins by OGTT; type: functional, organism-based
Mus musculus [8] = test: Hypoglycemic activity in db/db mouse assessed as reduction in glucose excursion at 25 nmol/kg, ip administered 30 min before oral glucose administration and measured upto 120 mins by OGTT; type: functional, organism-based
Mus musculus [9] = test: Insulinotropic activity in db/db mouse assessed as elevation of plasma insulin level at 25 nmol/kg, ip administered 30 min before oral glucose administration and measured upto 60 mins by ELISA; type: functional, organism-based; conditions: time <= 90.0 min
Mus musculus [10] = test: Anti-diabesity activity in DIO C57BL/6 mouse assessed as reduction in body weight at 10 nmol/kg, sc administered every 2 days for 10 days; type: functional; conditions: C57BL/6, 240 h, time 10 day
Mus musculus [11] = test: Anti-diabesity activity in DIO C57BL/6 mouse assessed as reduction in body weight at 25 nmol/kg, sc administered every 2 days for 10 days; type: functional; conditions: C57BL/6, 240 h, time 10 day
Mus musculus [12] = test: Anti-diabesity activity in DIO C57BL/6 mouse assessed as improvement in insulin sensitivity at 25 nmol/kg, sc administered every 2 days for 10 days by insulin tolerance test; type: functional, organism-based; conditions: time 10.0 day
Mus musculus [13] = test: Anti-diabesity activity against DIO C57BL/6 mouse assessed as reduction in body weight at 25 nmol/kg, sc administered every 2 days for 3 weeks; type: functional; conditions: C57BL/6, 504 h, time 21 day
Mus musculus [14] = test: Anti-diabesity activity against DIO C57BL/6 mouse assessed as reduction in cumulative food intake at 25 nmol/kg, sc administered every 2 days for 3 weeks; type: functional, organism-based; conditions: time 21.0 day
Mus musculus [15] = test: Anti-diabesity activity against DIO C57BL/6 mouse assessed as decrease in fat mass at 25 nmol/kg, sc administered every 2 days for 3 weeks; type: functional, organism-based; conditions: time 21.0 day
Mus musculus [16] = test: Anti-diabesity activity against DIO C57BL/6 mouse assessed as reduction in fasted blood glucose level at 25 nmol/kg, sc administered every 2 days for 3 weeks; type: functional, organism-based; conditions: time 21.0 day
Mus musculus [17] = test: Anti-diabesity activity against DIO C57BL/6 mouse assessed as improvement in glucose tolerance at 25 nmol/kg, sc administered every 2 days for 3 weeks by OGTT; type: functional, organism-based; conditions: time 21.0 day
Mus musculus [18] = test: Anti-diabesity activity against DIO C57BL/6 mouse assessed as reduction in cholesterol level in serum at 25 nmol/kg, sc administered every 2 days for 3 weeks; type: functional, organism-based; conditions: time 21.0 day
Mus musculus [19] = test: Anti-diabesity activity against DIO C57BL/6 mouse assessed as reduction in triglycerides level in serum at 25 nmol/kg, sc administered every 2 days for 3 weeks; type: functional, organism-based; conditions: time 21.0 day
Mus musculus [20] = test: Anti-diabesity activity in DIO C57BL/6 mouse assessed as reduction in body weight at 100 nmol/kg, sc administered every 2 days for 10 days; type: functional; conditions: C57BL/6, 240 h, time 10 day
Mus musculus [21] = test: Anti-diabesity activity against high fat diet-induced DIO C57BL/6 mouse model assessed as improvement in glucose tolerance level at 25 nmol/kg, sc administered for 2 weeks and measured on day 16 by oral glucose tolerance test; type: functional, organism-based; conditions: time 16.0 day
Mus musculus [22] = test: Anorectic activity in ICR mouse assessed as decrease in food intake at 25 nmol/kg, ip and measured after 24 hrs; type: functional, organism-based
BRIN-BD11 = test: Insulinotropic activity in rat BRIN-BD11 cells assessed as increase in insulin secretion incubated for 20 mins by radioimmunoassay; type: functional, cell-based; conditions: DDE = dose-dependent effect

EC50 [1]: 210 pM
SMILES: CCCC[C@H](NC(=O)[C@H](Cc1ccc(CS(=O)(=O)O)cc1)NC(=O)[C@H](CC(=O)O)NC(=O)COCCOCCNC(=O)COCCOCCNC(=O)CC[C@H](NC(=O)CCCCCCCCCCCCCCCCC(=O)O)C(=O)O)C(=O)NCC(=O)N[C@@H](Cc1c[nH]c2ccccc12)C(=O)N[C@@H](CCCC)C(=O)N(C)[C@H](CC(=O)O)C(=O)N(C)[C@@H](Cc1ccccc1)C(N)=O ({C18 diacid-γGlu-AEEA-AEEA}-D[Phe(4-CH2SO3H)][Nle]GW[Nle][dNMeD][NMeF]-NH2)
EC50 [2]: > 100000 pM
inhibition in vivo at 0.025 µmol/kg (Mus musculus [3]): 7.1%
Activity (Mus musculus [4]): Active
Activity (Mus musculus [5]): Active
Activity (Mus musculus [6]): Active
Activity (Mus musculus [7]): Active
Activity (Mus musculus [8]): Active
Activity (Mus musculus [9]): Active
inhibition in vivo at 0.01 µmol/kg (Mus musculus [10]): 3.9%
inhibition in vivo at 0.025 µmol/kg (Mus musculus [11]): 6.1%
Activity (Mus musculus [12]): Active
inhibition in vivo at 0.025 µmol/kg (Mus musculus [13]): 9.8%
Activity (Mus musculus [14]): Active
Activity (Mus musculus [15]): Active
Activity (Mus musculus [16]): Active
Activity (Mus musculus [17]): Active
Activity (Mus musculus [18]): Active
Activity (Mus musculus [19]): Active
inhibition in vivo at 0.1 µmol/kg (Mus musculus [20]): 10%
Activity (Mus musculus [21]): Active
Activity (Mus musculus [22]): Active
Activity (BRIN-BD11): Dde
